Data reported in US20260355182A1, “ISOQUINOLINE DERIVATIVE, SYNTHESIS METHOD THEREFOR, AND USE THEREOF” (Harbin Gloria Pharmaceuticals Co., Ltd., priority 2023, published 2026).

Tests used:
[1] = test system: db/db mice; assay: Acute glucose-response assay in non-fasted db/db mice; type: in vivo; conditions: s.c., 2 h; TZ 0.5, liraglutide 0.6, T6 0.5 mg/Kg
Method: The db/db mice were used to evaluate the glucose-lowering activity of compound T6 in comparison with reference metabolic agents (TZ 0.5 mg/Kg, liraglutide 0.6 mg/Kg, T6 0.5 mg/Kg). In FIG. 15, A) for the acute glucose-response assay, drugs were administered to non-fasted db/db mice. Immediately after drug administration (s. c.), mice were deprived of food and water, and blood glucose levels were measured from tail blood samples 2 h later. The relative percentage change in blood glucose was calculated by comparing glucose levels before and after treatment in the same animal. […] HbA1c levels were then measured using a glycated hemoglobin A1c enzyme-linked immunosorbent assay, also referred to as a mouse HbA1c ELISA assay. […] Data are presented as mean±error bars, with individual circles representing individual animals. Statistical significance is indicated as P<0.001 (**) and P<0.0001 (***).

[2] = test system: mouse and rat models of Parkinson's disease, Alzheimer's disease, multiple system atrophy; conditions: cited from earlier work
[3] = test system: rats; conditions: combined administration of terazosin and propranolol; cited from earlier work
[4] = test system: MPTP-induced Parkinsonian mouse model; assay: MPTP-induced Parkinsonian mouse model, rotarod and TH Western blot (T6); type: in vivo; conditions: TZ, MPTP 20 mg/kg
Method: Mice were administered MPTP at 20 mg/kg to induce Parkinsonian motor impairment and dopaminergic neuronal injury. […] In FIG. 13, A) motor coordination and endurance were assessed using the rotarod test and are expressed as the time remaining on the rotating rod. […] Actin was used as a loading control. […] Data are presented as mean±error bars, with individual points representing biological replicates. Significance of one-way ANOVA analysis is indicated as P<0.05 (*), P<0.01 (**), and P<0.001 (***).

[5] = molecular target: T1, Pgk1 (Homo sapiens, UniProt P00558); assay: In vitro biochemical Pgk1 enzymatic activity assay (NADH production); parameters: GAPDH-coupled NADH assay; conditions: 1.6 mM GAP, 1 mM β-NAD, 1 mM ADP, 20 ng/μL GAPDH, pH 8.6, 10 minutes
T1 sequence (P00558 1-417): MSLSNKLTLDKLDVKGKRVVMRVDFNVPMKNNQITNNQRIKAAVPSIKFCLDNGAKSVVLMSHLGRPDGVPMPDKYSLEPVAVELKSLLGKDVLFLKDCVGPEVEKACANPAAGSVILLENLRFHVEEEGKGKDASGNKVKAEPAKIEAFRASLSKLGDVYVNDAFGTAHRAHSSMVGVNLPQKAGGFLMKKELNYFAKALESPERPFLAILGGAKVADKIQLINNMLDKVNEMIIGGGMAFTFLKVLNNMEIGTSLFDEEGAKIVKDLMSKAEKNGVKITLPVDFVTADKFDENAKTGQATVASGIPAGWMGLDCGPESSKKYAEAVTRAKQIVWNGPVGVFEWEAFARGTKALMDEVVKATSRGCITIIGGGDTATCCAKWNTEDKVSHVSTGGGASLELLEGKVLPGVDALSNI
Method: Human Pgk1 cDNA was cloned into the pEASYTM-E2 vector (TransGen Biotech) containing a His tag. Protein expression was induced in BL21(DE3) chemocompetent cells (TransGen Biotech) with 0.5 mM IPTG. After lysing cells in extraction buffer (20 mM sodium phosphate, 500 mM NaCl, 5 mM imidazole, 5% glycerol, protease inhibitor cocktail, pH 7.9), the supernatant was purified with nickel beads (AdarBiotech). The His-tagged Pgk1 was eluted with the elution buffer (20 mM sodium phosphate, 500 mM NaCl, 80 mM imidazole, protease inhibitor cocktail, pH 7.9). The activity of Pgk1 can be measured by monitoring the rate of NADH production, as NADH accumulated as the reaction proceeded. Purified Pgk1-His protein ([…]) was added to the reaction buffer (20 mM Tris, 100 mM NaCl, 2 mM DTT, 0.1 mM MgSO4, 10 mM NaHPO4, pH 8.6), and the substrates (1.6 mM GAP, 1 mM β-NAD, 1 mM ADP, 20 ng/μL GAPDH) was added. […] After reaction for 10 minutes at room temperature, the absorbance wavelength at 339 nm was measured using a microplate reader (Molecular Devices, SpectraMax i3x), and this wavelength corresponds to NADH levels.

[6] = test system: patients; conditions: cited from earlier work
[7] = test system: Wild-type mice (C57BL/6); assay: Blood glucose in wild-type mice; type: in vivo; conditions: 0.1 mg/kg i.p., C57BL/6, fasted 6 hours after administration
Method: Wild-type mice (C57BL/6) aged 3 months to 4 months under normal feeding conditions were intraperitoneally injected with different drugs at 0.1 mg/kg. Mice injected with normal saline served as the control group. Mice were fasted for 6 hours after administration. Blood was collected from the tail of each mouse to measure blood glucose levels. Each group consisted of 9 mice.

[8] = test system: diabetic patients; conditions: cited from earlier work
[9] = test system: primary mouse neurons; assay: Cellular status and glucose metabolism-related gene expression in primary mouse neurons; type: cell-based; conditions: normoxic, 72 h; TZ 10 μM, T6 10 PM (so in the source)
From the text: In FIG. 10, A) representative bright-field images show the cellular status of primary neurons after treatment. […] The analyzed genes included G6PD, HK2, LDHA, PDK1, PGK1, and SLC2A1/GLUT1. […] TZ treatment produced a similar but generally more moderate metabolic gene-response profile, including increased LDHA, PDK1, and SLC2A1/GLUT1 expression. […] Error bars indicate variation among measurements. […] The results support the use of T6 or related compounds as agents capable of regulating neuronal metabolic status and glucose metabolism-associated pathways.

[10] = test system: MPTP-induced Parkinson's disease model mice; assay: MPTP-induced mouse model of Parkinson's disease, rotarod and tyrosine hydroxylase Western blot; type: in vivo; conditions: terazosin 0.1 mg/Kg
Method: Male mice aged 3 months were used and fed normally. The acute MPTP modeling method (see Sonsalla P K, Heikkila R E. The influence of dose and dosing interval on MPTP-induced dopaminergic neurotoxicity in mice. Eur J Pharmacol 1986; 129(3): 339-45.) was employed. MPTP was injected intraperitoneally four times in total at a dose of 20 mg/kg body weight per injection, with a 2-hour interval between each injection. MPTP was dissolved in normal saline, and the control group received an equal dose of normal saline. T2 was dissolved in DMSO and diluted with normal saline to the desired concentration. Accordingly, equal doses of DMSO and normal saline were administered during the treatment. On the day of MPTP model establishment, mice were administered either T2 (treatment group) or DMSO (control group). Subsequently, mice in all groups were administered the corresponding drugs daily. Mouse behavior was tested using a rotarod (E103, UGO BASILE). First, mice were pre-trained for two consecutive days at a constant speed of 15 revolutions per minute (15 rpm) until they could stay on the rod for more than 60 seconds. On day 7 after MPTP injection, mice were tested on the rotarod in an accelerating mode (2 rpm to 45 rpm). The latency to fall from the rotarod was recorded, and the behavior was monitored by a camera. After the experiment, the mice were sacrificed, and the striatal brain tissue was harvested for Western blot assay. Tyrosine hydroxylase (TH) is a protein specifically expressed in dopaminergic neurons. Therefore, whether dopaminergic neurons were damaged can be determined by Western blot assay using an anti-TH antibody.

[11] = test system: phosphoglycerate kinase 1 (Pgk1); conditions: cited from earlier work
[12] = test system: SK-N-SH cells; assay: Dose-effect relationship on cellular ATP levels in cultured SK-N-SH cells; type: cell-based, human
Method: SK-N-SH cells were seeded in a 6-well plate at a density of 6×10^4 per well. Cells were cultured for 12 hours under 5% O2, and the drug was added. Cells were harvested after 48 hours. Cellular ATP levels were measured using a Promega ATP assay kit. The experiment was repeated 5 times to 7 times.

Concentration for best activation of Pgk1 ([5]; role: activator): 1 µM | Effect on Pgk1 enzymatic activity at high concentration ([5]; role: inhibitor, 100 μM): can inhibit Pgk1 enzymatic activity
Compound: COc1cc2nc(N3CCN(C(=O)C4CCCO4)CC3)nc(N)c2cc1OC (stereo not drawn) [Terazosin, terazosin]
Acute change in blood glucose [1]: weaker acute effect | Therapeutic and prophylactic effects [2]: exerts therapeutic and prophylactic effects | Blood glucose in rats [3]: did not affect blood glucose in rats | Rotarod performance (TZ) [4]: weaker improvement | Side effects [6]: intraoperative floppy iris syndrome (IFIS), hypotension, fatigue, dizziness, syncope, and blurred vision | Hypoglycemic effect [7]: did not exhibit a hypoglycemic effect | Blood glucose and lipid levels [8]: efficacy is extremely limited or ineffective | Neuronal cellular morphology/status [9]: detectable changes in neuronal cellular morphology/status | Motor ability (rotarod) ([10]; day 7 after MPTP): improved the motor ability of mice | Tyrosine hydroxylase level / dopaminergic neurons ([10]; striatum, Western blot): exerted a protective effect on dopaminergic neurons | Effect on Pgk1, high concentration ([11]; high concentrations): can inhibit Pgk1 | Effect on Pgk1, low concentration ([11]; low concentrations): can activate Pgk1 | Binding to / activation of Pgk1 ([11]; previous studies): can activate Pgk1 | Dissociation of ATP from Pgk1 protein ([11]; published studies): promoted the dissociation of ATP from the Pgk1 protein | Inhibition of cell growth ([12]; 50 μM, SK-N-SH cells): a tendency to inhibit cell growth | Optimal dose for cellular ATP levels ([12]; doses 5, 10 and 50 μM, 48 hours, 5% O2): 10 µM
